Reference: PubChem BioAssay (NCI)
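Briefly, cells in 96-well plates were exposed to five compound concentrations for 48 h, and endpoints were estimated by linear interpolation. TGI: concentration producing complete growth inhibition.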

Assays:
Assay in all cases: NCI-60 cell line screen, 48 h
RPMI-8226 leukemia = tested on: RPMI-8226 leukemia
EKVX NSCLC = tested on: EKVX NSCLC
SNB-75 CNS = tested on: SNB-75 CNS
K-562 leukemia = tested on: K-562 leukemia
HL-60(TB) leukemia = tested on: HL-60(TB) leukemia
SR leukemia = tested on: SR leukemia
HT29 colon = tested on: HT29 colon
SF-539 CNS = tested on: SF-539 CNS
DLD-1 colon = tested on: DLD-1 colon
SF-295 CNS = tested on: SF-295 CNS
OVCAR-4 ovarian = tested on: OVCAR-4 ovarian
UACC-257 melanoma = tested on: UACC-257 melanoma
NCI-H23 lung = tested on: NCI-H23 lung
SK-MEL-2 melanoma = tested on: SK-MEL-2 melanoma
HOP-62 NSCLC = tested on: HOP-62 NSCLC
KM12 colon = tested on: KM12 colon
UO-31 renal = tested on: UO-31 renal
A498 renal = tested on: A498 renal
NCI-H460 lung = tested on: NCI-H460 lung
OVCAR-8 ovarian = tested on: OVCAR-8 ovarian
SNB-78 CNS = tested on: SNB-78 CNS
HCT-116 colon = tested on: HCT-116 colon
COLO 205 colon = tested on: COLO 205 colon
M19-MEL melanoma = tested on: M19-MEL melanoma
SK-OV-3 ovarian = tested on: SK-OV-3 ovarian
NCI-H226 lung = tested on: NCI-H226 lung
RXF-631 renal = tested on: RXF-631 renal
U251 CNS = tested on: U251 CNS
SW-620 colon = tested on: SW-620 colon
NCI-H522 lung = tested on: NCI-H522 lung
HCT-15 colon = tested on: HCT-15 colon
DMS 273 small cell lung = tested on: DMS 273 small cell lung
KM20L2 colon = tested on: KM20L2 colon
OVCAR-3 ovarian = tested on: OVCAR-3 ovarian
CAKI-1 renal = tested on: CAKI-1 renal
SK-MEL-5 melanoma = tested on: SK-MEL-5 melanoma
OVCAR-5 ovarian = tested on: OVCAR-5 ovarian
TK-10 renal = tested on: TK-10 renal
UACC-62 melanoma = tested on: UACC-62 melanoma
M14 melanoma = tested on: M14 melanoma
HCC-2998 colon = tested on: HCC-2998 colon
SN12C renal = tested on: SN12C renal
CCRF-CEM leukemia = tested on: CCRF-CEM leukemia
A549 NSCLC = tested on: A549 NSCLC
MALME-3M melanoma = tested on: MALME-3M melanoma
HOP-18 NSCLC = tested on: HOP-18 NSCLC
MOLT-4 leukemia = tested on: MOLT-4 leukemia
IGROV1 ovarian = tested on: IGROV1 ovarian
ACHN renal = tested on: ACHN renal
SNB-19 CNS = tested on: SNB-19 CNS
786-0 renal = tested on: 786-0 renal
LXFL 529 NSCLC = tested on: LXFL 529 NSCLC
XF 498 CNS = tested on: XF 498 CNS
DMS 114 small cell lung = tested on: DMS 114 small cell lung
SK-MEL-28 melanoma = tested on: SK-MEL-28 melanoma
LOX IMVI melanoma = tested on: LOX IMVI melanoma
HOP-92 NSCLC = tested on: HOP-92 NSCLC
SF-268 CNS = tested on: SF-268 CNS
RXF 393 renal = tested on: RXF 393 renal

Measured: TGI

O=C1c2ccccc2C(=O)N1C/C=N/NS(=O)(=O)c1ccc2ccccc2c1
not listed: DMS 114 small cell lung | SK-MEL-28 melanoma | LOX IMVI melanoma | HOP-92 NSCLC | SF-268 CNS | RXF 393 renal
> 100 µM: all other assays above

Nc1nc[n+](Cc2ccccc2CCO)c2nc[nH]c12
not listed: SR leukemia | DLD-1 colon | SNB-78 CNS | HCT-116 colon | HCC-2998 colon
> 100 µM: all other assays above
